Experiment [1] has as its system Saccharomyces cerevisiae. The experiment can be described thus: DNA damaging activity against DNA repair-deficient RS 167N (rad6) yeast assessed as drug concentration required to produce 12 mm zone of inhibition up to 8000 ug/mL. It counts as functional, organism-based.
For experiment [2], the system named is Saccharomyces cerevisiae. The experiment can be described thus: DNA damaging activity against DNA repair-deficient RS 321 yeast assessed as drug concentration required to produce 12 mm zone of inhibition up to 8000 ug/mL. It counts as functional, organism-based.
The subject of experiment [3] is Saccharomyces cerevisiae. The experiment is described as follows: DNA damaging activity against DNA repair-deficient RS 322YK (rad 52Y) yeast assessed as drug concentration required to produce 12 mm zone of inhibition up to 8000 ug/mL. It counts as functional, organism-based.
Experiment [4] relates to Saccharomyces cerevisiae. The experiment can be described thus: DNA damaging activity against DNA repair-deficient RS 188N (RAD+) yeast assessed as drug concentration required to produce 12 mm zone of inhibition up to 8000 ug/mL. It counts as functional, organism-based.
In experiment [5] the test system is Saccharomyces cerevisiae. The experiment is described as follows: DNA damaging activity against DNA repair-deficient RS 321 yeast assessed as drug concentration required to produce 12 mm zone of inhibition. It counts as functional.
In experiment [6] the test system is Saccharomyces cerevisiae. The experiment can be described thus: DNA damaging activity against DNA repair-deficient RS 322YK (rad 52Y) yeast assessed as drug concentration required to produce 12 mm zone of inhibition. It counts as functional.
Experiment [7] has as its system Saccharomyces cerevisiae. The experiment is described as follows: DNA damaging activity against DNA repair-deficient RS 188N (RAD+) yeast assessed as drug concentration required to produce 12 mm zone of inhibition. It counts as functional.
Experiment [8] deals with Saccharomyces cerevisiae. The experiment is described as follows: DNA damaging activity against DNA repair-deficient RS 167N (rad6) yeast assessed as drug concentration required to produce 12 mm zone of inhibition. It counts as functional.

The source made the active and inactive calls. No cut-off for these calls is given here. Some results are limits rather than exact numbers.

`CC(=O)N1C[C@H](C)CC[C@@]12O[C@H]1C[C@H]3[C@@H]4CC=C5C[C@@H](O)CC[C@]5(C)[C@H]4CC[C@]3(C)[C@H]1[C@@H]2C`: the result in experiment [1], in experiment [2], in experiment [3] and in experiment [4] was inactive.
Consider `CC(=O)O[C@H]1CC[C@@]2(C)C(=CC[C@H]3[C@@H]4C[C@@H]5O[C@@]6(CC[C@@H](C)CN6)[C@@H](C)[C@@H]5[C@@]4(C)CC[C@@H]32)C1`, for which the IC12 was 3 µg/mL in experiment [5], 21 µg/mL in experiment [6], 15.7 µg/mL in experiment [7] and 30 µg/mL in experiment [8].
On to `CC(=O)O[C@H]1CC[C@@]2(C)C(=CC[C@H]3[C@@H]4C[C@@H]5O[C@@]6(CC[C@@H](C)CN6C(C)=O)[C@@H](C)[C@@H]5[C@@]4(C)CC[C@@H]32)C1`, for which the result in experiment [1], in experiment [2], in experiment [3] and in experiment [4] was inactive.
On to `CC[C@@]1(O)C(=O)OCc2c1cc1n(c2=O)Cc2cc3ccccc3nc2-1` [CAMPTOTHECIN], for which the IC12 is 0.9 µg/mL in experiment [6] and 100 µg/mL in experiment [7].
Consider `C[C@@H]1CC[C@]2(NC1)O[C@H]1C[C@H]3[C@@H]4CC=C5C[C@@H](O)CC[C@]5(C)[C@H]4CC[C@]3(C)[C@H]1[C@@H]2C` [SOLASODINE], for which the IC12 in experiment [5] was 1.9 µg/mL; in experiment [6] it was 5 µg/mL; in experiment [7] it was over 6.1 µg/mL; in experiment [8], over 10 µg/mL.
Take `C[C@@H]1CC[C@]2(NC1)O[C@H]1C[C@H]3[C@@H]4CC=C5C[C@@H](O[C@@H]6O[C@H](CO)[C@@H](O)[C@H](O)[C@H]6O)CC[C@]5(C)[C@H]4CC[C@]3(C)[C@H]1[C@@H]2C`: the outcome in experiment [1], in experiment [2], in experiment [3] and in experiment [4] was inactive.
